Measured values published in US6608082B1, “Treatment of erectile dysfunction using isoquinoline compound melanocortin receptor ligands” (Lion Bioscience AG, priority 1998, dated 2003).

Legend:
MCR-3 = molecular target: T1, MCR-3 (Homo sapiens, UniProt P41968); assay: cAMP assay for melanocortin receptors, HEK 293 cells expressing MCR-3; format: cell-based; conditions: read-out: MC-3 EC50 (cAMP)
T1 construct: expressed in transfected cells; host or cells: HEK 293
Experimental: HEK 293 cells expressing MCR-1, MCR-3, MCR-4 and MCR-5 were used (see Example II). Cells were plated at 20,000 cells per well in a 96-well plate coated with collagen. The next day, cells were pretreated with 75 μl of 0.4 mM 3-isobutyl-1-methylxanthine (IBMX) in low serum medium containing DMEM, 25 mM HEPES, non-essential amino acids, vitamins, 100 units/ml penicillin, 100 μg/ml streptomycin and 0.1% COSMIC CALF SERUM. IBMX is an inhibitor of cAMP phosphodiesterase. The pretreatment was carried out for 10 min at 37° C.
Following pretreatment, 25 μl of diluted isoquinoline compound was added to the wells, and cells were incubated for 15 min at 37° C. Cells were lysed by adding 25 μl saponin lysis buffer and incubating 2 to 5 min. Plates were covered and stored at −20° C.
cAMP concentration was determined by ELISA. Briefly, 96 well ELISA plates were coated with goat anti-cAMP antibody in PBS for 12 to 72 hr at 4° C. 50 μl of sample was mixed with 50 μl of cAMP ELISA buffer containing 1% bovine serum albumin, 10% heat-inactivated donor horse serum, 1% normal mouse serum and 0.05% TWEEN-20 in PBS, and the diluted sample was added to the coated ELISA plate. Standards of known concentrations of cAMP were added to separate wells. 25 μl of 16 ng/ml cAMP-conjugated horse radish peroxidase (HRP) (cAMP-HRP) was added to each well, and the plates were […] at room temperature. Plates were washed and the binding of cAMP-HRP was detected with 3,3′,5,5′-tetramethylbenzidine (TMB) and hydrogen peroxide using standard immunoassay procedures.
Various isoquinoline compounds were tested for their ability to activate MC receptor by measuring cAMP as described in Example III.

MCR-5 = molecular target: T2, MCR-5 (Homo sapiens, UniProt P33032); assay: Melanocortin receptor binding assay, competition with 125I-HP 467, HEK 293 cells expressing hMCR-5; conditions: binding to MCR-5, HEK 293 cells; read-out: MC-5 IC50
T2 construct: expressed in transfected cells; host or cells: HEK 293
Description: All cell culture media and reagents were obtained from GibcoBRL (Gaithersburg Md.), except for COSMIC CALF SERUM (HyClone; Logan Utah). HEK-293 cell lines were transfected with the human MC receptors hMCR-1, hMCR-3, and hMCR-4 (Gantz et al., Biochem. Biophys. Res. Comm. 200:1214-1220 (1994); Gantz et al., J. Biol. Chem. 268:8246-8250 (1993); Gantz et al. J. Biol. Chem. 268:15174-15179 (1993); Haskell-Leuvano et al., Biochem. Biophys. Res. Comm. 204:1137-1142 (1994); each of which is incorporated herein by reference). Vectors for construction of an hMCR-5 expressing cell line were obtained, and a line of HEK 293 cells expressing hMCR-5 was constructed (Gantz, supra, 1994). hMCR-5 has been described previously (Franberg et al., Biochem. Biophys. Res. Commun. 236:489-492 (1997); Chowdhary et al., Cytogenet. Cell Genet. 68:1-2 (1995); Chowdhary et al., Cytogenet. Cell Genet. 68:79-81 (1995), each of which is incorporated herein by reference). HEK 293 cells were maintained in DMEM, 25 mM HEPES, 2 mM glutamine, non-essential amino acids, vitamins, sodium pyruvate, 10% COSMIC CALF SERUM, 100 units/ml penicillin, 100 μg/ml streptomycin and 0.2 mg/ml G418 to maintain selection.
Before assaying, cells were washed once with phosphate buffered saline (“PBS”; without Ca^2+ and Mg^2+), and stripped from the flasks using 0.25% trypsin and 0.5 mM EDTA. Cells were suspended in PBS, 10% COSMIC CALF SERUM and 1 mM CaCl2. Cell suspensions were prepared at a density of 2×10^4 cells/ml for HEK 293 cells expressing hMCR-3, hMCR-4 or hMCR-5, and 1×10^5 cells/ml for HEK 293 cells expressing hMCR-1. Suspensions were placed in a water bath and allowed to warm to 37° C. for 1 hr.
Binding assays were performed in a total volume of 250 μl for HEK 293 cells. Control and test compounds were dissolved in distilled water. ^125I-HP 467 (50,000 dpm) (2000 Ci/mmol) (custom labeled by Amersham; Arlington Heights Ill.) was prepared in 50 mM Tris, pH 7.4, 2 mg/ml BSA, 10 mM CaCl2, 5 mM MgCl2, 2 mM EDTA and added to each tube. To each tube was added 4×10^3 HEK 293 cells expressing hMCR-3, hMCR-4 or hMCR-5, or 2×10^4 cells expressing hMCR-1. Assays were incubated for 2.5 hr at 37° C.
GF/B filter plates were prepared by soaking for at least one hour in 5 mg/ml BSA and 10 mM CaCl2. Assays were filtered using a Brandel 96-well cell harvester (Brandel Inc.; Gaithersburg, Md.). The filters were washed four times with cold 50 mM Tris, pH 7.4, the filter plates were dehydrated for 2 hr and 35 μl of MICROSCINT was added to each well. Filter plates were counted using a Packard Topcount (Packard Instrument Co.) and data analyzed using GraphPad PRISM v2.0 (GraphPad Software Inc.; San Diego Calif.) and Microsoft EXCEL v5.0a (Microsoft Corp.; Redmond Wash.).
To assay isoquinoline compounds, binding assays were performed in duplicate in a 96 well format. HP 467 was prepared in 50 mM Tris, pH 7.4, and ^125I-HP 467 was diluted to give 100,000 dpm per 50 μl. An isoquinoline compound, synthesized as described in Example I, was added to the well in 25 μl aliquots. A 25 μl aliquot of ^125I-HP 467 was added to each well. A 0.2 ml aliquot of suspended cells was added to each well to give the cell numbers indicate above, and the cells were incubated at 37° C. for 2.5 hr. Cells were harvested on GF/B filter plates as described above and counted.
Some of the isoquinoline compounds were further tested for binding to MCR-3 and MCR-5.

T2 sequence (P33032 whole entry): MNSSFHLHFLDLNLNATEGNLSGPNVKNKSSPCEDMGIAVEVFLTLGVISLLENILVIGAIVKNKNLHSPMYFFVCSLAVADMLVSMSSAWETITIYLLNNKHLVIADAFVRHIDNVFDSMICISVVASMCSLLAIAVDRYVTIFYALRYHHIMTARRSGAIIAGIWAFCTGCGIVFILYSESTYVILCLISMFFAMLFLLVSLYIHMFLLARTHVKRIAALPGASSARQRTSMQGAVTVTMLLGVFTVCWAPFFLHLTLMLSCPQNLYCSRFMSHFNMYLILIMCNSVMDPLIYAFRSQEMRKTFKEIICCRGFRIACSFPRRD
T1 sequence (P41968 whole entry): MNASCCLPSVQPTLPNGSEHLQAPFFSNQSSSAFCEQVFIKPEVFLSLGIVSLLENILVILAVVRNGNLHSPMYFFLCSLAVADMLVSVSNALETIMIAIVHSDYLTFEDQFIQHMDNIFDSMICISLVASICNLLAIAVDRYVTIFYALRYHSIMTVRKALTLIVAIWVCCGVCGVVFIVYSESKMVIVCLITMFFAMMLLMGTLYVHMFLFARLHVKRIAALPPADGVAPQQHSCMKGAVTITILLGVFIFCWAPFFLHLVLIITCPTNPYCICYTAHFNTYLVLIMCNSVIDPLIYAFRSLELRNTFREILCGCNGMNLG

| Structure (SMILES) | EC50 (MCR-3) [nM] | IC50 (MCR-5) [nM] |
| --- | --- | --- |
| CNC(CN)CCCCN1Cc2ccccc2C(CNC2CCCCC2)C1c1ccc(N(C)C)cc1 (stereo not drawn) [TRG 2405-235] | – | 2820 |
| CNC(CN)CCCCN1Cc2ccccc2C(CNC2CCCCC2)C1c1ccc(C(F)(F)F)cc1 (stereo not drawn) [TRG 2405-238] | > 50000 | 430 |
| CNC(CN)CCCCN1Cc2ccccc2C(CNC2CCCCC2)C1c1ccc(-c2ccccc2)cc1 (stereo not drawn) [TRG 2405-241] | > 50000 | 1040 |
| CCCOc1ccc(C2C(CNC3CCCCC3)c3ccccc3CN2CCCCC(CN)NC)cc1 (stereo not drawn) [TRG 2405-253] | > 50000 | 2770 |
| CNC(CN)CCCCN1Cc2ccccc2C(CN)C1c1ccc(Cl)cc1Cl (stereo not drawn) [TRG 2407-39] | – | 240 |
| CCNc1ccc(C2C(CNCc3ccccc3O)c3ccccc3CN2CCCC(CN)NCCc2ccccc2)cc1 (stereo not drawn) [TRG 2408-57] | – | 1700 |
| CCNc1ccc(C2C(CNC3CCCCC3)c3ccccc3CN2CCCC(CN)NCCc2ccccc2)cc1 (stereo not drawn) [TRG 2408-62] | – | 2790 |

Now from value to compound:

| EC50 (MCR-3) [nM] | IC50 (MCR-5) [nM] | Structure (SMILES) |
| --- | --- | --- |
| > 50000 | 2830 | CNC(CN)CN1Cc2ccccc2C(CNC2CCCCC2)C1c1ccc(O)cc1 (stereo not drawn) [TRG 2405-156] |
| – | 800 | CNC(CN)CCCCN1Cc2ccccc2C(CNC2CCCCC2)C1c1ccc(Cl)cc1Cl (stereo not drawn) [TRG 2405-190] |
| > 50000 | 8720 | CCNc1ccc(C2C(CNC3CCCCC3)c3ccccc3CN2CCCCC(CN)NC)cc1 (stereo not drawn) [TRG 2405-239] |
| > 50000 | 410 | CNC(CN)CCCCN1Cc2ccccc2C(CNC2CCCCC2)C1c1ccc(Br)cc1 (stereo not drawn) [TRG 2405-242] |
| > 50000 | > 10000 | CNC(CN)CCCCN1Cc2ccccc2C(CNC2CCCCC2)C1c1ccc(O)cc1 (stereo not drawn) [TRG 2405-246] |
| > 50000 | 1860 | CNC(CN)CCCCN1Cc2ccccc2C(CNC2CCCCC2)C1c1ccc(Oc2ccccc2)cc1 (stereo not drawn) [TRG 2405-252] |
| > 50000 | > 10000 | CNC(CN)CCCCN1Cc2ccccc2C(CNC2CCCCC2)C1c1ccc2cccc(O)c2n1 (stereo not drawn) [TRG 2405-262] |
| – | 9350 | CCNc1ccc(C2C(CNC3CCCCC3)c3ccccc3CN2CCCCC(CN)NC)cc1 (stereo not drawn) [TRG 2408-30] |
